Assay: Moisture sorption isotherms
Format: physicochemical
Settings: moisture sorption at 25° C., 4 to 95% RH (FIG. 4)
Experimental: Moisture sorption isotherms were collected in a TA Instrument VTI-SA+ Vapor Sorption Analyzer using approximately 270 mg of sample in a 250 μL ceramic pan. The sample was dried at 30° C. until the loss rate of 0.005 wt %/min was obtained for 10 minutes. The sample was tested at 25° C. and 4, 5, 15, 25, 35, 45, 50, 65, 75, 85, and 95% RH. Equilibration at each RH was reached when the rate of 0.01 wt %/min for 35 minutes was achieved or a maximum of 600 minutes.

hygroscopicity: non-hygroscopicity
SMILES: CCCN(C)C(=O)OCc1c(-c2ccc(O[C@H]3CCC[C@H](C(=O)O)C3)c(C)n2)nnn1C [Form A]
